The source of these data is PMC8296985, “A Covalent Calmodulin Inhibitor as a Tool to Study Cellular Mechanisms of K-Ras-Driven Stemness” (Frontiers in Cell and Developmental Biology, 2021).

The target in one assay is T1, K-RasG12V/CaM (Homo sapiens, UniProt P0DP23).
T1 construct: expressed in transfected cells; host or cells: HEK293-EBNA
Nature of the assay: Rluc8-K-RasG12V/GFP2-CaM interaction BRET in HEK293-EBNA cells. In kind it is cell-based. As to conditions: for effect on Rluc8-K-RasG12V/GFP2-CaM BRET signal, single concentration: calmidazolium 20 μM, prostratin 20 μM, OphA 5 μM. How it is done: (§1) BRET assays were essentially performed as described by others ([Lavoie et al., 2013]; [Bery et al., 2018]). About 100,00–150,000 HEK293-EBNA ([Meissner et al., 2001]) cells were seeded per well of a 12-well plate in 1 ml of DMEM containing 10% FBS and 2 mM L-glutamine and were grown for 24 h. Next day, Rluc8-tagged donor and GFP2-tagged acceptor constructs were transfected into cells using a jetPRIME transfection reagent (cat. no. 114-75, Polyplus). Each well was transfected with about 1 μg of plasmid DNA using 3 μl of the jetPRIME reagent. For BRET donor saturation titration experiments, the concentration of donor plasmid (25 ng) was kept constant, and the concentration of acceptor plasmid was increased from 0 to 500 ng for RasG12V BRET pairs and 0–1,000 ng for K-Ras/CaM BRET pairs. The empty pcDNA3.1(-) plasmid was used to top-up the total DNA load per transfection. After 24 h of transfection, cells were treated with compounds or vehicle control (DMSO 0.2% v/v in a growth medium) at the specified concentration for 24 h or the stipulated time period in case of the time-course experiments. The cells from one well of a 12-well plate were collected, washed, and re-plated in PBS (cat. no. 14190-094, Gibco, Thermo Fisher Scientific) on flat bottom, white 96-well plates (cat. no. 236108, Nunc, Thermo Fisher Scientific) as four technical replicates containing 90 μl of cell suspension per well. Then fluorescence intensity followed by BRET readings were carried out on a Clariostar (BMG Labtech) plate reader at 25°C. The fluorescence intensity (RFU) of GFP2 was measured with excitation at 405 ± 10 nm and emission 515 ± 10 nm; it is proportional to the acceptor concentration [acceptor]. BRET readings were taken well by well by adding 10 μl of 100 μM coelenterazine 400a (cat. no. C-320, GoldBio), the Rluc8 substrate to each well (final concentration of 10 μM) using the injector present in the plate reader. Luminescence emission intensities were simultaneously recorded at 410 ± 40 nm (RLU, proportional to [donor]) and 515 ± 15 nm (BRET signal).
(§2) The raw BRET ratio was calculated as the BRET signal measured at 515 nm divided by the emission signal measured at 410 nm (RLU). The BRET ratio was obtained by subtracting the raw BRET ratio by a background BRET signal measured for cells expressing only the donor ([Bacart et al., 2008]) as indicated in the formula below:
(§3) For BRET donor saturation titration experiments, the BRET ratio was plotted against the [acceptor]/[donor] ratio. Technical repeat data points were averaged, and data points from all biological repeats were collected into one graph for subsequent fitting. The BRET ratio vs. relative expression data were fitted using a binding saturation equation in the Prism (GraphPad) software to obtain BRETmax and BRET50 using the equation y=BRETmax×x/BRET50+x , where x is the relative expression and y is the BRET ratio. BRETmax represents the maximum saturation BRET signal and depends on the structural parameters (distance, orientation) of the BRET complex. BRET50 corresponds to the ratio of the acceptor construct over the donor construct required to attain 50% of the maximum BRET signal and is a measure of the effective relative affinity between the interacting BRET pair ([Marullo and Bouvier, 2007]).

Assay [1] deals with NCI-H358, MIA PaCa-2, MDA-MB-231 and A375 3D spheroids. Nature of the assay: 3D spheroid growth benchmarking, DSS3, alamarBlue. In kind it is cell-based. As to conditions: spheroids grown 72 h then treated 72 h. As for the experimental part:
(§4) 3D spheroid formation assays were performed in 96-well low-attachment, suspension culture plates (cat. no. 655185, Cellstar, Greiner Bio-One) under serum-free condition. About 1,000 (MDA-MB-231, NCI-H358, and MIA PaCa-2) or 2,500 (Hs 578T) cells per well were seeded in 50 μl of either an RPMI medium (cat. no. 52400-025, Gibco, Thermo Fisher Scientific) (MDA-MB-231, A375, and NCI-H358) or DMEM (cat. no. 41965-039, Gibco, Thermo Fisher Scientific) (Hs 578T and MIA PaCa-2), containing 0.5% MethoCult (cat. no. SF H4636, Stemcell technologies), 1x B27 (cat. no. 17504044, Gibco, Thermo Fisher Scientific), 25 ng/ml EGF (cat. no. E9644, Sigma-Aldrich), and 25 ng/ml FGF (cat. no. RP-8628, Thermo Fisher Scientific). Cells were cultured for 3 days and then treated with compounds or vehicle control (DMSO 0.1% v/v in growth medium) for another 3 days. The cells were supplemented with a fresh growth medium on the third day together with the drug treatment. For knockdown experiments, cells were seeded in 12-well plates and treated with either 50 nM scrambled siRNA (cat. no. 1022076, QIAGEN) or indicated concentrations of siRNAs. Next day, cells were collected by trypsinization and re-plated into 96-well plates for 3D spheroid suspension culture.
(§5) Spheroid formation efficiency was analyzed by an alamarBlue assay reagent (cat. no. DAL1100, Thermo Fisher Scientific). A 10% final volume of the alamarBlue reagent was added to each well of the plate and incubated for 4 h at 37°C. Then the fluorescence intensity was measured using the FLUOstar OPTIMA plate reader (BMG Labtech, Germany) with an excitation wavelength of 560 ± 5 nm and an emission wavelength of 590 ± 5 nm.
(§6) To quantitatively profile the drug sensitivity with a more robust parameter than the IC50 or EC50 values, the drug sensitivity score (DSS) analysis was employed. DSS values are essentially normalized area under the curve (AUC) measures of dose-response inhibition data ([Yadav et al., 2014]). Drug response data files (in Excel) ready for online analysis were prepared according to the example file obtained from the DSS pipeline website, called Breeze^1 ([Potdar et al., 2020]). Either raw fluorescence intensity measurements or normalized % inhibition data (for BRET assay analysis) were uploaded.
(§7) DSS3 was employed to emphasize drugs that obtain their response area over a relatively wide dose window, as compared to drugs that show increased response only at the higher end of the concentration range. After logistic fitting of the dose-response inhibition data, the area under the curve (AUC) was determined as the exact solution. A 10% minimal activity threshold (t) was set. The maximum (Cmax) and minimum (Cmin) concentrations were used for screening of the inhibitors, with Cmax = x2 and x1 concentration with minimal activity t.

The test system of the next assay is K-RasG12V. Nature of the assay: K-RasG12V nanoclustering-BRET assay in HEK293-EBNA cells. In kind it is cell-based. The conditions noted are these: 24 h; calmidazolium 20 μM, OphA 2.5 μM, prostratin 10 μM, mevastatin 10 μM, benzazulenones 20 μM. How it is done:
as §1, §2, §3
When applying the DSS analysis to nanoclustering-BRET data, we used mevastatin (10 μM) to obtain the asymptote parameter (a) for the maximal inhibition effect, as it prevents the prenylation of Ras proteins, their plasma membrane trafficking, and therefore nanoclustering. Otherwise, normalized BRET ratio data were converted to % inhibition and then subsequently uploaded onto the Breeze site (see text footnote 1).

In the next assay the target is CaM. The arrangement: method as in Manoharan et al., 2019. As to conditions: ref Manoharan et al., 2019; cited from earlier work.
Another assay relates to HeLa cells. Nature of the assay: Centrosome number / multipolar phenotype in synchronized HeLa cells expressing mCherry-CaM. In kind it is cell-based. As to conditions: 2 h; calmidazolium 20 μM, 1 50 μM, with MG132 10 μM. As for the experimental part: To evaluate the effect of compounds on centrosome numbers during mitosis, HeLa cells were seeded in 6-well plates onto sterile coverslips and cotransfected with 0.5 μg of pmCherry-CaM and 1.5 μg pEGFP-Centrin1 plasmids using 4 μl of jetPRIME. Twenty-four hours after the transfection, cells were synchronized with 60 ng/ml of nocodazole for 16 h. After the removal of nocodazole, the cells were treated with the […] MG132 (10 μM) to block the cells in metaphase and either calmidazolium (20 μM), 1 (50 μM), or DMSO (0.5%) for 2 h. Cells were then fixed with 4% paraformaldehyde in PBS for 10 min at ambient temperature. After washing with PBS-Tween 0.05%, DNA was stained with a 1 μg/ml solution of DAPI diluted in PBS for 10 min. Coverslips were mounted on glass slides using Vectashield, and images were captured on a spinning disk confocal microscope. Images were analyzed with the ImageJ software, and the number of transfected mitotic cells with multipolar and normal bipolar phenotypes was counted (between 35 and 70 cells per test condition). The percentage multipolar vs. bipolar cells was computed to generate the plot using the Prism software.

In the next assay the test system is MDA-MB-231. Kind of assay: 3D spheroid (tumorosphere) formation assay, low attachment, serum-free, alamarBlue. Type of assay: cell-based. The conditions noted are these: for IC50: Homo sapiens. As for the experimental part:
as §4, §5, §6, §7

The subject of a further assay is Hs 578T. The assay is described as above. In kind it is cell-based. As to conditions: Homo sapiens. As for the experimental part: as §4, §5, §6, §7
In another assay the target is calmodulin (CaM) (Bos taurus, UniProt P62157). Nature of the assay: Fluorescence polarization assay, displacement of F-PMCA peptide from CaM.
Assay [2] addresses T2, mutCaM (CaM with K75Q, K77Q, and K148Q mutations) (Homo sapiens, UniProt P0DP23, K76Q/K78Q).
T2 construct: made in house; host or cells: E. coli BL21 Star (DE3)pLysS
Kind of assay: Fluorescence polarization assay with F-CaMKII peptide and His-mutCaM. In kind it is binding. As to conditions: 50 nM His-mutCaM, 5 nM F-CaMKII, compared to wt CaM. How it is done: Our numbering of CaM follows ([Kong Au and Chow Leung, 1998]) with Ala being the first amino acid in human CaM, as the N-terminal methionine of CaM is removed in most organisms ([Halling et al., 2016]). […] At A600 of 0.6–0.8, the culture was induced with 0.5 mM of isopropyl β-D-thiogalactopyranoside and expressed for 16 h at 25°C. Cells were collected by centrifugation and incubated on ice for 30 min. The cell suspension was sonicated in a lysis buffer (20 mM HEPES, pH 7.6, 150 mM NaCl, 5 mM MgCl2, 0.5 mg/ml lysozyme, and DNase I). The lysates were clarified by centrifugation at 18,000 g for 30 min at 4°C. The soluble fractions were subjected to protein purification.

Each structure is given as a SMILES string. Where two headings read alike, the source gives them in different places.

Protocol for calmodulin (CaM): Compounds were threefold-diluted in an assay buffer (20 mM Tris Cl pH 7.5, 50 mM NaCl, 1 mM CaCl2, and 0.005% Tween 20), and a complex of 100 nM CaM and 10 nM F-PMCA peptide was added. […] Then the plate was incubated overnight at 4°C, and the next day, final readings were taken after a total of 24 h incubation. The fluorescence anisotropy was calculated and plotted against the logarithm of the compound concentration and fit to the log inhibitor vs. response–variable slope (four parameters) equation in Prism (GraphPad).
The potency and selectivity of a covalent inhibitor are governed by two parameters, namely, Ki, the dissociation constant of the initial non-covalent complex, and k2, the rate of the subsequent covalent bond-forming reaction as given in the chemical equation
E and I denote a protein target and its covalent inhibitor, respectively. E ⋅ I is the initial non-covalent complex, and E – I is the final covalent complex. […] This was repeated for several inhibitor concentrations. Then, kobs was plotted against the concentration of the inhibitor, and the data were fit to a hyperbolic equation kobs=k2×[I]/Ki+[I] to obtain Ki and k2. The ratio of k2/Ki represents the second-order rate constant of the reaction of the covalent inhibitor with the target.

In the case of `CC(=O)O[C@@]12C[C@@H](C)[C@@]3(O)[C@@H](C=C(CO)C[C@]4(O)C(=O)C(C)=C[C@@H]34)[C@@H]1C2(C)C` [prostratin], the “effect on Rluc8-K-RasG12V/GFP2-CaM BRET signal, single concentration” value at K-RasG12V/CaM was “did not have an effect”. Also, the “effect on 3D spheroid growth” value in assay [1] is reported as “almost no effect on cell growth”. Further, the “K-Ras selective reduction of nanoclustering-BRET (K-Ras vs H-Ras)” value with K-RasG12V is 1.5 fold.
For the compound `Clc1ccc(C(c2ccc(Cl)cc2)n2cc[n+](CC(OCc3ccc(Cl)cc3Cl)c3ccc(Cl)cc3Cl)c2)cc1` (centres unmarked) [calmidazolium], the “effect on Rluc8-K-RasG12V/GFP2-CaM BRET signal, single concentration” value at K-RasG12V/CaM is “significantly reduced the BRET signal”. In addition, at CaM, the Kd was 0.0135 µM. Besides, the “K-Ras selective reduction of nanoclustering-BRET (K-Ras vs H-Ras)” value with K-RasG12V stood at 1.5 fold. For the same compound, in the assay on HeLa cells, the “multipolar phenotype (multiple mCherry-CaM-positive centrosomes)” value is “increased fraction of multipolar cells”.
With `Cc1c(N2CCCCC2)c2c(=O)c(C(F)(F)F)cc3ccc(C(C)C)cc1c32` [Compound 8], the IC50 is 70 ± 11 µM on K-RasG12V/CaM (24-h exposure, A/D plasmid ratio 9/1, read-out: IC50 of Rluc8-K-RasG12V/GFP2-CaM BRET signal); 32.4 µM with MDA-MB-231 (72 h, MDA-MB-231 (K-RasG13D) 3D tumorosphere, 3 days treatment, read-out: IC50); 31.6 µM in the assay on MDA-MB-231 (MDA-MB-231 3D tumorosphere, log scale, read-out: logIC50 ± SD (converted)); 10.6 µM in the assay on Hs 578T (72 h, Hs 578T (H-RasG12D) 3D tumorosphere, 3 days treatment, read-out: IC50); 10.5 µM in the assay with Hs 578T (Hs 578T 3D tumorosphere, log scale, read-out: logIC50 ± SD (converted)). Moreover, the “KRAS/HRAS mutant cell line DSS3 ratio” value in the assay on MDA-MB-231 (MDA-MB-231 vs Hs 578T 3D spheroid formation, 0.6–40 μM, numbers above bars Fig. 1A,B) is on record as 1.5. Further, the affinity at calmodulin (CaM), expressed as Kd, was 3.1 µM. In addition, the Ki on calmodulin (CaM) is 39 µM. Moreover, on calmodulin (CaM) (read-out: k2/Ki second-order rate constant), the kinact/KI was 2.5 M⁻¹ s⁻¹. Moreover, the “binding to mutCaM over time” value in assay [2] is “same binding affinity for wt CaM and mutCaM over time”.
